Laboratory results taken from ChEMBL document CHEMBL3232753, “Synthesis and in vitro cytotoxic effect of 6-amino-substituted 11H- and 11Me-indolo[3,2-c]quinolines” (Eur J Med Chem, 2014).
One block for each molecule: values may come before it.

Columns and labels:
MV4-11 = assay: Cytotoxicity against human MV4-11 cells assessed as cell viability after 72 hrs by MTT assay; format: functional, cell-based; conditions: MV4-11, 72 h
A549 [1] = assay: Cytotoxicity against human A549 cells assessed as cell viability after 72 hrs by SRB assay; format: functional, cell-based; conditions: A549, 72 h
BALB/3T3 = assay: Cytotoxicity against mouse BALB/3T3 cells assessed as cell viability after 72 hrs by SRB assay; format: cell-based; conditions: BALB/3T3, 72 h
HCT-116 [2] = assay: Cytotoxicity against human HCT116 cells assessed as cell viability after 72 hrs by SRB assay; format: functional, cell-based; conditions: HCT-116, 72 h
Salmonidae = assay: Binding affinity to Salmon fish sperm DNA by UV-visible spectroscopy
A549 [3] = assay: Selectivity ratio of IC50 for human A549 cells to IC50 for human HCT116 cells; format: functional
HCT-116 [4] = assay: Selectivity ratio of IC50 for human MV4-11 cells to IC50 for human HCT116 cells; format: functional

SMILES: c1ccc2c(c1)nc(NCC1CCCO1)c1c3ccccc3[nH]c21 (configuration not stated)
IC50 (MV4-11): 750 nM
IC50 (A549 [1]): 1400 nM
IC50 (BALB/3T3): 3040 nM
IC50 (HCT-116 [2]): 1280 nM

SMILES: c1ccc(CNc2nc3ccccc3c3[nH]c4ccccc4c23)cc1
IC50 (MV4-11): 770 nM
IC50 (A549 [1]): 1990 nM
IC50 (BALB/3T3): 8040 nM
IC50 (HCT-116 [2]): 1460 nM

SMILES: Cn1c2ccccc2c2c(NCC(C)(C)CN)nc3ccc(Cl)cc3c21
IC50 (MV4-11): 560 nM

K (Salmonidae): 1.05 ×10⁶ L/mol
SMILES: CN(C)CCCNc1nc2ccccc2c2[nH]c3ccccc3c12
IC50 (MV4-11): 410 nM
IC50 (A549 [1]): 870 nM
IC50 (BALB/3T3): 1180 nM
IC50 (HCT-116 [2]): 550 nM

SMILES: Cn1c2ccccc2c2c(NCC(C)(C)CN)nc3ccc(Br)cc3c21
IC50 (MV4-11): 500 nM

SMILES: NCCCNc1nc2cccc(Br)c2c2[nH]c3ccccc3c12
IC50 (MV4-11): 600 nM

SMILES: NCCCCCCNc1nc2ccccc2c2[nH]c3ccccc3c12
IC50 (MV4-11): 710 nM
IC50 (A549 [1]): 1060 nM
IC50 (BALB/3T3): 1070 nM
IC50 (HCT-116 [2]): 1080 nM

SMILES: NCCCCNc1nc2ccccc2c2[nH]c3ccccc3c12
IC50 (MV4-11): 700 nM
IC50 (A549 [1]): 1160 nM
IC50 (BALB/3T3): 1140 nM
IC50 (HCT-116 [2]): 1060 nM

SMILES: Cn1c2ccccc2c2c(NCCCNC(=O)Nc3ccccc3)nc3ccccc3c21
IC50 (MV4-11): 570 nM
IC50 (A549 [1]): 1190 nM
IC50 (BALB/3T3): 6110 nM
IC50 (HCT-116 [2]): 820 nM

SMILES: CCN(CC)CCCC(C)Nc1nc2ccccc2c2c1c1ccccc1n2C (configuration not stated)
IC50 (MV4-11): 70 nM
IC50 (A549 [1]): 110 nM
IC50 (BALB/3T3): 500 nM
IC50 (HCT-116 [2]): 50 nM

SMILES: Cn1c2ccccc2c2c(NCCCN)nc3ccc(Br)cc3c21
IC50 (MV4-11): 430 nM

SMILES: OCCNc1nc2ccccc2c2[nH]c3ccccc3c12
IC50 (MV4-11): 440 nM
IC50 (A549 [1]): 1450 nM
IC50 (BALB/3T3): 830 nM
Ratio IC50 (A549 [3]): 7
IC50 (HCT-116 [2]): 190 nM

SMILES: NCCCCCNc1nc2ccccc2c2[nH]c3ccccc3c12
IC50 (MV4-11): 610 nM
IC50 (A549 [1]): 1050 nM
IC50 (BALB/3T3): 1010 nM
IC50 (HCT-116 [2]): 1060 nM

SMILES: c1ccc2c(c1)nc(N1CCCNCC1)c1c3ccccc3[nH]c21
IC50 (MV4-11): 850 nM
IC50 (A549 [1]): 2460 nM
IC50 (BALB/3T3): 10100 nM
IC50 (HCT-116 [2]): 1730 nM

SMILES: COc1ccc(Nc2nc3ccccc3c3[nH]c4ccccc4c23)c(OC)c1
IC50 (MV4-11): 7280 nM

SMILES: NCCCNc1nc2ccc([N+](=O)[O-])cc2c2[nH]c3ccccc3c12
IC50 (MV4-11): 150 nM
IC50 (A549 [1]): 350 nM
IC50 (BALB/3T3): 360 nM
IC50 (HCT-116 [2]): 100 nM

SMILES: Cn1c2ccccc2c2c(NCC(C)(C)CN)nc3ccccc3c21
IC50 (MV4-11): 150 nM
IC50 (A549 [1]): 540 nM
IC50 (BALB/3T3): 700 nM
IC50 (HCT-116 [2]): 130 nM

SMILES: Clc1nc2ccccc2c2[nH]c3ccccc3c12
IC50 (MV4-11): 9140 nM

SMILES: NCCCN1CCN(CCCNc2nc3ccccc3c3[nH]c4ccccc4c23)CC1
IC50 (MV4-11): 390 nM
IC50 (A549 [1]): 760 nM
IC50 (BALB/3T3): 1150 nM
IC50 (HCT-116 [2]): 980 nM

SMILES: CC(C)(CN)CNc1nc2ccc(Cl)cc2c2[nH]c3ccccc3c12
IC50 (MV4-11): 590 nM

SMILES: COc1ccc2nc(NCCCN)c3c4ccccc4[nH]c3c2c1
IC50 (MV4-11): 120 nM
IC50 (A549 [1]): 160 nM
Ratio IC50 (HCT-116 [4]): 8
IC50 (BALB/3T3): 310 nM
IC50 (HCT-116 [2]): 70 nM

K (Salmonidae): 4.84 ×10⁶ L/mol
SMILES: CN(C)CCCNc1nc2ccc(Cl)cc2c2c1c1ccccc1n2C
IC50 (MV4-11): 80 nM
IC50 (A549 [1]): 570 nM
IC50 (BALB/3T3): 820 nM
IC50 (HCT-116 [2]): 100 nM

SMILES: CN(C)CCCNc1nc2ccccc2c2c1c1ccccc1n2C
IC50 (MV4-11): 140 nM
IC50 (A549 [1]): 140 nM
IC50 (BALB/3T3): 780 nM
IC50 (HCT-116 [2]): 200 nM

SMILES: CC(CN)CNc1nc2ccc(Cl)cc2c2[nH]c3ccccc3c12 (configuration not stated)
IC50 (MV4-11): 620 nM

SMILES: COc1ccc2nc(NCCCN)c3c4ccccc4n(C)c3c2c1
IC50 (MV4-11): 100 nM
IC50 (A549 [1]): 110 nM
IC50 (BALB/3T3): 100 nM
IC50 (HCT-116 [2]): 10 nM

SMILES: c1ccc(Nc2nc3ccccc3c3[nH]c4ccccc4c23)cc1
IC50 (MV4-11): 8370 nM

SMILES: NCCCNc1nc2ccc(F)cc2c2[nH]c3ccccc3c12
IC50 (MV4-11): 590 nM

SMILES: NCCCNc1nc2ccc(Br)cc2c2[nH]c3ccccc3c12
IC50 (MV4-11): 650 nM

SMILES: c1ccc2c(c1)nc(N1CCOCC1)c1c3ccccc3[nH]c21
IC50 (MV4-11): 9430 nM

SMILES: OCCCNc1nc2ccccc2c2[nH]c3ccccc3c12
IC50 (MV4-11): 380 nM
IC50 (A549 [1]): 2210 nM
IC50 (BALB/3T3): 860 nM
Ratio IC50 (A549 [3]): 7
IC50 (HCT-116 [2]): 260 nM

SMILES: Cn1c2ccccc2c2c(NCCCN)nc3ccc(F)cc3c21
IC50 (MV4-11): 170 nM
IC50 (A549 [1]): 250 nM
IC50 (BALB/3T3): 980 nM
IC50 (HCT-116 [2]): 110 nM

SMILES: Cn1c2ccccc2c2c(Cl)nc3ccccc3c21
IC50 (MV4-11): 16600 nM

SMILES: Cc1ccc2nc(NCCCN)c3c4ccccc4[nH]c3c2c1
IC50 (MV4-11): 140 nM
IC50 (A549 [1]): 210 nM
Ratio IC50 (HCT-116 [4]): 8
IC50 (BALB/3T3): 920 nM
IC50 (HCT-116 [2]): 80 nM

SMILES: Cn1c2ccccc2c2c(NCCCN)nc3ccc([N+](=O)[O-])cc3c21
IC50 (MV4-11): 50 nM
IC50 (A549 [1]): 110 nM
IC50 (BALB/3T3): 80 nM
IC50 (HCT-116 [2]): 10 nM

SMILES: NCCCNc1nc2ccccc2c2[nH]c3ccccc3c12
IC50 (MV4-11): 120 nM
IC50 (A549 [1]): 170 nM
IC50 (BALB/3T3): 1050 nM
IC50 (HCT-116 [2]): 260 nM

SMILES: Cn1c2ccccc2c2c(NCCCN)nc3ccccc3c21
IC50 (MV4-11): 110 nM
IC50 (A549 [1]): 180 nM
IC50 (BALB/3T3): 950 nM
IC50 (HCT-116 [2]): 60 nM

SMILES: CCN(CC)CCCC(C)Nc1nc2ccc(Cl)cc2c2c1c1ccccc1n2C (configuration not stated)
IC50 (MV4-11): 570 nM

SMILES: CN(C)CCCNc1nc2ccc(Br)cc2c2c1c1ccccc1n2C
IC50 (MV4-11): 390 nM

SMILES: CN1CCCN(c2nc3ccccc3c3c2c2ccccc2n3C)CC1
IC50 (MV4-11): 960 nM

SMILES: Cn1c2ccccc2c2c(NCCCN)nc3ccc(Cl)cc3c21
IC50 (MV4-11): 120 nM
IC50 (A549 [1]): 730 nM
IC50 (BALB/3T3): 940 nM
IC50 (HCT-116 [2]): 110 nM

SMILES: CN1CCCN(c2nc3ccccc3c3[nH]c4ccccc4c23)CC1
IC50 (MV4-11): 740 nM
IC50 (A549 [1]): 1970 nM
IC50 (BALB/3T3): 8960 nM
IC50 (HCT-116 [2]): 1650 nM

SMILES: NCCCNc1nc2ccc(Cl)cc2c2[nH]c3ccccc3c12
IC50 (MV4-11): 560 nM

SMILES: Cc1ccc2nc(NCCCN)c3c4ccccc4n(C)c3c2c1
IC50 (MV4-11): 90 nM
IC50 (A549 [1]): 140 nM
IC50 (BALB/3T3): 420 nM
IC50 (HCT-116 [2]): 70 nM
